Patent publication US20060247220A1, “Preventing the crystallization of cholesterol using oxysterols” (priority 2003, published 2006)

How the values were obtained:
[1] = Crystallization of cholesterol from solution in sunflower seed oil at room temperature; format: physicochemical
Procedure: Cholesterol was partially oxidized by heating in an oven with air at 80° C.
A 140 mg portion of the partially oxidized cholesterol was placed in a glass tube and 2.6 mL sunflower seed oil was added. The same amount of oil was added to tubes containing 60, 80, 100, 120 and 140 mg of pure cholesterol. All the tubes were held in a heating block at 95° C. until the sterols were dissolved. They were then held at room temperature (about 24° C.) for at least 3 weeks.
To determine the maximum solubilizing effect of the oxysterols, 35 mg and 70 mg of pure cholesterol were added to tubes containing 140 mg of the partially oxidized cholesterol, and 2.6 mL oil was added to each tube. The mixtures were brought into solution as described above, and held at room temperature.

[2] = test system: rabbits; settings: fed in diet; cited from earlier work
[3] = test system: rabbits; settings: fed in diet; cited from earlier work; remark: listed apart in the source
[4] = test system: rabbits; settings: in the diet, hydroperoxides added to cholesterol; cited from earlier work

CC(C)CCC[C@@H](C)[C@H]1CC[C@H]2[C@@H]3CC=C4C[C@@H](O)CC[C@]4(C)[C@H]3CC[C@]12C [pure cholesterol, cholesterol]
crystallization on standing ([1]; 60 mg pure cholesterol in 2.6 mL sunflower seed oil, room temperature): crystallization did not occur
time to complete crystallization ([1]; 80, 100, 120 and 140 mg pure cholesterol in 2.6 mL sunflower seed oil, room temperature (about 24° C.)): about 1 hour
atherosclerotic lesions [2]: both elevated serum cholesterol and lesions
atherogenicity [3]: much more atherogenic to rabbits than oxysterols or a mixture of cholesterol and oxysterols
atheroma / lesion formation in the aortas [4]: extensive atheroma formation
